Laboratory results reported in article PMC5024137 (Scientific Reports, 2016).

T1: hOATP2B1 (Homo sapiens, UniProt O94956)
T1 sequence (O94956 1-709): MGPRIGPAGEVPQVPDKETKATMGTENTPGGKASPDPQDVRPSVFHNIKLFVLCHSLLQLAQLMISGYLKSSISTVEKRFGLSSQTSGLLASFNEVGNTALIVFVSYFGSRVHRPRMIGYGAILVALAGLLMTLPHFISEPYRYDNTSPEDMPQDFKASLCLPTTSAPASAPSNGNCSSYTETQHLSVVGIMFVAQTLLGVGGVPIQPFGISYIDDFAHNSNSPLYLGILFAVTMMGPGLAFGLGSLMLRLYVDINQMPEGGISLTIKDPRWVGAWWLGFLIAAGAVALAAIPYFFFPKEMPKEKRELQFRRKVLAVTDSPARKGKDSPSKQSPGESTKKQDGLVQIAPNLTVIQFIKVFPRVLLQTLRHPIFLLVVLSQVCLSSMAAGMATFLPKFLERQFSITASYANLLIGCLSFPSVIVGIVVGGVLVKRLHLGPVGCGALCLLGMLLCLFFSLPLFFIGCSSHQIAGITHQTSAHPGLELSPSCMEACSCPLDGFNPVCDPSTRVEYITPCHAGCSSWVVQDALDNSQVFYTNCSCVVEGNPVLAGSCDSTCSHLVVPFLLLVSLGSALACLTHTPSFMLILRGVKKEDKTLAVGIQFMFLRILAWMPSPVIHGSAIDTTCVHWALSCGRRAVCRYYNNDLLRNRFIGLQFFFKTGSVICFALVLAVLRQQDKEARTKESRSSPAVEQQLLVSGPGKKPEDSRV

B1: hOATP2B1 (Homo sapiens) (protein)
chain: MGPRIGPAGEVPQVPDKETKATMGTENTPGGKASPDPQDVRPSVFHNIKLFVLCHSLLQLAQLMISGYLKSSISTVEKRFGLSSQTSGLLASFNEVGNTALIVFVSYFGSRVHRPRMIGYGAILVALAGLLMTLPHFISEPYRYDNTSPEDMPQDFKASLCLPTTSAPASAPSNGNCSSYTETQHLSVVGIMFVAQTLLGVGGVPIQPFGISYIDDFAHNSNSPLYLGILFAVTMMGPGLAFGLGSLMLRLYVDINQMPEGGISLTIKDPRWVGAWWLGFLIAAGAVALAAIPYFFFPKEMPKEKRELQFRRKVLAVTDSPARKGKDSPSKQSPGESTKKQDGLVQIAPNLTVIQFIKVFPRVLLQTLRHPIFLLVVLSQVCLSSMAAGMATFLPKFLERQFSITASYANLLIGCLSFPSVIVGIVVGGVLVKRLHLGPVGCGALCLLGMLLCLFFSLPLFFIGCSSHQIAGITHQTSAHPGLELSPSCMEACSCPLDGFNPVCDPSTRVEYITPCHAGCSSWVVQDALDNSQVFYTNCSCVVEGNPVLAGSCDSTCSHLVVPFLLLVSLGSALACLTHTPSFMLILRGVKKEDKTLAVGIQFMFLRILAWMPSPVIHGSAIDTTCVHWALSCGRRAVCRYYNNDLLRNRFIGLQFFFKTGSVICFALVLAVLRQQDKEARTKESRSSPAVEQQLLVSGPGKKPEDSRV

What was measured:
[1] = biological target: T1, hOATP2B1; test: Cellular uptake assay: intracellular accumulation in HEK293-hOATP2B1 vs HEK293-MOCK cells (HPLC-MS/MS); details: 0.25 μM, HBSS pH7.4, 37 °C, 20 min
[2] = biological target: T1, hOATP2B1; test: pH dependent uptake of morphine and M6G in HEK293-hOATP2B1 cells; details: 0.25 μM, HBSS, 37 °C, 20 min
[3] = substrate: CN1CC[C@]23c4c5ccc(O)c4O[C@H]2[C@@H](O[C@@H]2O[C@H](C(=O)O)[C@@H](O)[C@H](O)[C@H]2O)C=C[C@H]3[C@H]1C5; test: cells, lysate or membranes named; details: other: HEK293-hOATP2B1 cells, 0.25 to 100 μM, pH7.4, 37 °C, 20 min, pH 7.4
Excerpt: V is the initial uptake rate of the substrate (pmol/min/mg protein), S is the substrate concentration in the medium (μM) and Pdif is the uptake clearance corresponding to the passive diffusion and nonspecific binding to the cell surface. Unpaired two-side Student’s t-test was applied for comparisons of two groups’ data. A P value < 0.05 was considered statistically significant.

Molecule	increase of intracellular accumulation in HEK293-hOATP2B1 compared to HEK293-MOCK [1]	other results
C[C@]12CC[C@@H]3c4ccc(OS(=O)(=O)[O-])cc4CC[C@H]3[C@@H]1CCC2=O.[Na+] [E-3-S, estrone-3-sulfate sodium salt]	2 to 3 fold	–
CN1CC[C@]23c4c5ccc(O[C@@H]6O[C@H](C(=O)O)[C@@H](O)[C@H](O)[C@H]6O)c4O[C@H]2[C@@H](O)C=C[C@H]3[C@H]1C5 [M3G, morphine-3-glucuronide]	didn’t show any differences	–
CN1CC[C@]23c4c5ccc(O)c4O[C@H]2[C@@H](O[C@@H]2O[C@H](C(=O)O)[C@@H](O)[C@H](O)[C@H]2O)C=C[C@H]3[C@H]1C5 [M6G, morphine-6-glucuronide]	more than 2 fold	concentration in HEK293-hOATP2B1 cells at pH6.0 relative to pH7.4 [2]: 2.05 fold; intracellular accumulation ([1]; HEK293-MOCK cells): 0.26 nM; intracellular accumulation ([1]; HEK293-hOATP2B1 cells): 0.71 nM
CC(C)n1c(/C=C/C(O)CC(O)CC(=O)O)c(-c2ccc(F)cc2)c2ccccc21 (centres unmarked) [fluvastatin]	2 to 3 fold	–
B1	–	Km [3]: 80.31 ± 21.75 µM
